Data reported in the NIST ThermoML archive (doi:10.1016/j.fluid.2018.08.016).

Assays:
[1] = for thermal conductivity: 101.33 kPa, Modified transient plane source method; for Normal melting temperature: Crystal 1, DTA; for Triple point temperature: DSC
[2] = Molar enthalpy of transition or fusion; details: DSC

CCCCCCCCCCCCCCCCCCCCCC [docosane]
[1]
Details	thermal conductivity [W/m/K]
297.6 K, Crystal 2	0.624
302.4 K, Crystal 2	0.668
307.9 K, Crystal 2	0.637
318.1 K, Liquid	0.151
323 K, Liquid	0.15
328.1 K, Liquid	0.148
333 K, Liquid	0.146
337.7 K, Liquid	0.145
343 K, Liquid	0.144
347.9 K, Liquid	0.143
353 K, Liquid	0.142

Details	Normal melting temperature [°C]
[1]	43.5

Details	Molar enthalpy of transition or fusion, [2] [kcal/mol]	Triple point temperature, [1] [K]
Crystal 1	9.92	–
Crystal 2	6.92	315.6

CCCCCCCCCCCC [dodecane]
[1], Liquid
Details	thermal conductivity [W/m/K]
318.2 K	0.135
323.2 K	0.134
328.1 K	0.133
333.1 K	0.131
337.7 K	0.13
343.2 K	0.128
347.9 K	0.127
352.8 K	0.127

CCCCCCCCCCCCCCCCCCCCCCCCCCCCCCCC [dotriacontane]
[1]
Details	thermal conductivity [W/m/K]
297.7 K, Crystal 2	0.574
302.3 K, Crystal 2	0.574
307.5 K, Crystal 2	0.585
312.8 K, Crystal 2	0.607
318 K, Crystal 2	0.585
323.1 K, Crystal 2	0.561
328 K, Crystal 2	0.588
332.6 K, Crystal 2	0.621
343 K, Liquid	0.153
348 K, Liquid	0.152
353.1 K, Liquid	0.149

Details	Normal melting temperature [°C]
[1]	69

Details	Molar enthalpy of transition or fusion, [2] [kcal/mol]	Triple point temperature, [1] [K]
Crystal 1	18	–
Crystal 2	9.3	338.1

CCCCCCCCCCCCCCCCCCCCCCCCCC [hexacosane]
thermal conductivity [W/m/K], [1]
Details	297.6 K	302.4 K	307.8 K	312.7 K	318.5 K	333 K	337.8 K	343.1 K	348 K	353.1 K
Crystal 2	0.499	0.524	0.484	0.513	0.574	–	–	–	–	–
Liquid	–	–	–	–	–	0.151	0.15	0.149	0.148	0.147

Details	Normal melting temperature [°C]
[1]	55.7

Details	Molar enthalpy of transition or fusion, [2] [kcal/mol]	Triple point temperature, [1] [K]
Crystal 1	13.2	–
Crystal 2	7.37	325.7

CCCCCCCCCCCCCCCCCCCCCCCCCCCC [octacosane]
thermal conductivity [W/m/K], [1]
Details	297.7 K	302.4 K	308 K	312.7 K	318.6 K	323.4 K	337.7 K	343.1 K	348 K	353 K
Crystal 2	0.514	0.489	0.471	0.469	0.473	0.505	–	–	–	–
Liquid	–	–	–	–	–	–	0.152	0.151	0.149	0.149

Details	Normal melting temperature [°C]
[1]	60.2

Details	Molar enthalpy of transition or fusion, [2] [kcal/mol]	Triple point temperature, [1] [K]
Crystal 1	15.1	–
Crystal 2	8.39	330.4

CCCCCCCCCCCCCCCCCCCCCCCC [tetracosane]
[1]
Details	thermal conductivity [W/m/K]
297.6 K, Crystal 2	0.594
302.3 K, Crystal 2	0.545
307.7 K, Crystal 2	0.545
312.9 K, Crystal 2	0.603
323.1 K, Liquid	0.152
328 K, Liquid	0.151
333 K, Liquid	0.149
337.6 K, Liquid	0.148
343.1 K, Liquid	0.146
348 K, Liquid	0.146
353 K, Liquid	0.145

Details	Normal melting temperature [°C]
[1]	50.0

Details	Molar enthalpy of transition or fusion, [2] [kcal/mol]	Triple point temperature, [1] [K]
Crystal 1	12.2	–
Crystal 2	7.41	320.8

CCCCCCCCCCCCCCCCCCCCCCCCCCCCCC [triacontane]
thermal conductivity [W/m/K], [1]
Details	297.7 K	302.3 K	307.8 K	312.6 K	318.5 K	323.3 K	328 K	343.1 K	348 K	353.5 K
Crystal 2	0.616	0.603	0.556	0.612	0.559	0.514	0.536	–	–	–
Liquid	–	–	–	–	–	–	–	0.153	0.152	0.151

Details	Normal melting temperature [°C]
[1]	64.0

Details	Molar enthalpy of transition or fusion, [2] [kcal/mol]	Triple point temperature, [1] [K]
Crystal 1	16.7	–
Crystal 2	9.03	334.2
